“Also recorded” adds a separate entry of the source.
Biological target: T1, HepI R120A (Escherichia coli, UniProt P24173, R120A)
T1 construct: made in house; host or cells: E. coli One Shot BL-21-AI (stated for HepI in general)
Test: HepI inhibition, ADP/NADH coupled assay (R120A mutant)
Type: biochemical, E. coli K12
Experimental: As previously reported[11],[14],[15], an ADP/NADH coupled assay was used to monitor HepI activity by monitoring the absorbance change at 340 nm at 37 °C on a Cary Bio 100 UV–Vis Spectrometer. Under normal conditions, the assay buffer was composed of 50 mM HEPES, 50 mM KCl, 10 mM MgCl2, pH 7.5. The coupled enzyme reaction additionally contained 100 μM phosphoenolpyruvate, 100 μM NADH, 100 μM dithiothreitol (DTT) and 0.05 U/μL of both pyruvate kinase and lactate dehydrogenase. 100 μM ADPH was used when ODLA concentration was varied and 100 μM ODLA was used when ADPH was varied. Once a stable baseline was established (~ 5 min), the reaction was initiated by addition of HepI to a final concentration of 50 nM or 100 nM (for high and lower substrate concentrations respectively) and all reported reaction rates are after background subtraction. When running 12 samples at once, plastic cuvette stirs and a repeat pipettor was used to inject 200 μL enzyme. Inhibition of HepI was monitored using the same ADP/NADH coupled assay, all conditions of the assay were the same as previously described unless otherwise stated. Ki values for each of the compounds were determined by varying compound final concentration from 100 μm to 10 nm, and a final concentration of 10 μM ODLA. Competition assays against ADPH were done with excess ODLA (100 μM) and varying ADPH from 2–0.25 μM. Competition assays against ODLA were done with excess ADPH (100 μM) and varying ODLA from 2–0.25 μM. Reactions were started with addition of enzyme and inhibitor was varied from 30–0.01 μM. Kinetics were fit to Lineweaver-Burke (Eq. 1), competitive (Eq. 2), non-competitive (Eq. 3), mixed (Eq. 4), Dixon (Eq. 5), or Cornish-Bowden (Eq. 6) models. All fitting and plotting was done through MATLAB R2018A.1 1/V1/[S]=KM/Vmax[S]+1/Vmax 2 V[S]=Vmax[S]/KM1+[I]/Ki+[S] 3 V[S]=Vmax[S]/1+([I]/Ki)/KM+[S] 4 V[S]=Vmax[S]/KM(1+[I]/Ki)+[S](1+[I]/αKi) 5 1/V[I]=KM1+I/Ki+[S]1+I/αKi/Vmax[S] 6 [S]/V[I]=KM1+I/Ki+[S]1+I/αKi/Vmax

T1 sequence (P24173 whole entry R120A): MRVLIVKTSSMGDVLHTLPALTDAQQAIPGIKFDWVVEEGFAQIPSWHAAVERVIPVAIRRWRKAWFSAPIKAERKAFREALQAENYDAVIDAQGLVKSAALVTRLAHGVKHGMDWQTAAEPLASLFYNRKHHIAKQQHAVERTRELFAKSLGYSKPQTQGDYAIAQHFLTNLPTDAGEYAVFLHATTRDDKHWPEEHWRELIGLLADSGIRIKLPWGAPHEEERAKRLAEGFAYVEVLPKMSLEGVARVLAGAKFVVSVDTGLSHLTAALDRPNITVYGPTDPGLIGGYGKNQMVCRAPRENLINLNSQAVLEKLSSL

NC[C@H]1O[C@H](O[C@H]2[C@H](O)[C@@H](O[C@H]3O[C@H](CO)[C@@H](O)[C@H](N)[C@H]3O)[C@H](N)C[C@@H]2N)[C@H](N)C[C@@H]1O [Tobramycin]
Ki: 422 ± 186 nM
ΔΔG (kcal/mol) Exp (Arg120Ala relative to WT): -0.6 ± 0.2 kcal/mol
ΔG (kcal/mol) Exp (Arg120Ala, from Ki): -8.7 ± 0.2 kcal/mol
Ki relative to WT (HepI R120A vs WT): ~ twofold tighter; also recorded: lowering of the inhibition constant

— paper PMC9068772, “Discovery of first-in-class nanomolar inhibitors of heptosyltransferase I reveals a new aminoglycoside target and potential alternative mechanism of action” (Scientific Reports, 2022)
